The target of assay [1] is 5-hydroxytryptamine receptor 2A (Homo sapiens, UniProt P28223).
The target in assay [2] is T1, Alpha-1B adrenergic receptor (Homo sapiens, UniProt P35368).
T1 sequence (P35368 whole entry): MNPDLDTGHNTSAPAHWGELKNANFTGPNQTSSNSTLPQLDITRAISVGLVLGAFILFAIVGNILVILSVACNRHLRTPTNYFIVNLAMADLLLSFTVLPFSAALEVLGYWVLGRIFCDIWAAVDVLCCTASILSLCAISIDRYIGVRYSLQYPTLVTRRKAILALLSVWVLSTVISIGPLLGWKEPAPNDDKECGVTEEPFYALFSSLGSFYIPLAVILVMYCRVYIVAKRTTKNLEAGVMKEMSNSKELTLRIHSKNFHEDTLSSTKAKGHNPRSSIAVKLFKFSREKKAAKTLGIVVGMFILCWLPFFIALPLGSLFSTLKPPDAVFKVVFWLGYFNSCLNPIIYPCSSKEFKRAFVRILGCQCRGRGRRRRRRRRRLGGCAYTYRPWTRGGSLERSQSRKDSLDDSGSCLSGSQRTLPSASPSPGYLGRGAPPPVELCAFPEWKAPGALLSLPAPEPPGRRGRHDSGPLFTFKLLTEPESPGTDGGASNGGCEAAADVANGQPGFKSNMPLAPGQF

For assay [3], the target named is Muscarinic acetylcholine receptor M3 (Homo sapiens, UniProt P20309).
Assay [4] has as its target 5-hydroxytryptamine receptor 4 (Sus scrofa, UniProt Q29006).
The target of assay [5] is 5-hydroxytryptamine receptor 6 (Homo sapiens, UniProt P50406).
In assay [6] the target is T2, 5-hydroxytryptamine receptor 1F (Homo sapiens, UniProt P30939).
T2 sequence (P30939 whole entry): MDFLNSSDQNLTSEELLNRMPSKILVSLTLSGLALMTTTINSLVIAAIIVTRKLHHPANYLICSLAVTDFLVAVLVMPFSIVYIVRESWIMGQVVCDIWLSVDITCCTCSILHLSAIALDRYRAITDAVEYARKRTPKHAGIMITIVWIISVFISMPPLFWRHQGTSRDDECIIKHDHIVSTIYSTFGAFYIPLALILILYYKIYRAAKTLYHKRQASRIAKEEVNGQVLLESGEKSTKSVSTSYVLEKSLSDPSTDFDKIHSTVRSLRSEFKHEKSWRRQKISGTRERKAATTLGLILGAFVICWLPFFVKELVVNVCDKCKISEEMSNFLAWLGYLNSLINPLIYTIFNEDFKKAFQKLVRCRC

Assay [7] addresses 5-hydroxytryptamine receptor 7 (Homo sapiens, UniProt P34969).
Assay [8] deals with D(2) dopamine receptor (Homo sapiens, UniProt P14416).
In assay [9] the target is 5-hydroxytryptamine receptor 2B (Homo sapiens, UniProt P41595).
The target of assay [10] is D(3) dopamine receptor (Homo sapiens, UniProt P35462).
Assay [11] has as its target 5-hydroxytryptamine receptor 1E (Homo sapiens, UniProt P28566).
Assay [12] addresses 5-hydroxytryptamine receptor 1B (Homo sapiens, UniProt P28222).
The target in assay [13] is T3, 5-hydroxytryptamine receptor 2C (Homo sapiens, UniProt P28335).
T3 sequence (P28335 whole entry): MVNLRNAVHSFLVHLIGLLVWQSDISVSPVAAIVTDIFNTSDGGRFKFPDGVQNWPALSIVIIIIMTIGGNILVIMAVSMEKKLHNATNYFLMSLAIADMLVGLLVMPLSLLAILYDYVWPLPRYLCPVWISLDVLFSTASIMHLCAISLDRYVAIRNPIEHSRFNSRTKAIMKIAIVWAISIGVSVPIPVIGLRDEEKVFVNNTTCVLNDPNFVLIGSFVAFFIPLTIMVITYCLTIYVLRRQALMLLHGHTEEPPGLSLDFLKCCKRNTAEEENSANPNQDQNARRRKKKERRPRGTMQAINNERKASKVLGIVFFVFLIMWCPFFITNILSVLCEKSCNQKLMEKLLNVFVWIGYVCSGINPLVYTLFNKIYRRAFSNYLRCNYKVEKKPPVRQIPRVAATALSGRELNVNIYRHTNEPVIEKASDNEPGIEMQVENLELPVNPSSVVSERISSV

Sequence of 5-hydroxytryptamine receptor 6 (P50406 whole entry): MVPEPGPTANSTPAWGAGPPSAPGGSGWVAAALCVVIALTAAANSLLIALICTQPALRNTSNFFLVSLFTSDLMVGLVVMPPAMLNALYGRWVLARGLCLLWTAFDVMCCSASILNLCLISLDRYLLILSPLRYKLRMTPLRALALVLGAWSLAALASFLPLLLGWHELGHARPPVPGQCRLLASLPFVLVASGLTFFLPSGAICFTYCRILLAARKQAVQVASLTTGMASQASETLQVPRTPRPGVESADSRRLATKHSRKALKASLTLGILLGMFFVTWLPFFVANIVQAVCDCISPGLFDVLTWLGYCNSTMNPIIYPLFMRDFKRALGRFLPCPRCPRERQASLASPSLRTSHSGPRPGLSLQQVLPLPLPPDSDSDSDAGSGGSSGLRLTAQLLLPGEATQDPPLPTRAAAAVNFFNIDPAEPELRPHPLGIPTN
Sequence of Muscarinic acetylcholine receptor M3 (P20309 whole entry): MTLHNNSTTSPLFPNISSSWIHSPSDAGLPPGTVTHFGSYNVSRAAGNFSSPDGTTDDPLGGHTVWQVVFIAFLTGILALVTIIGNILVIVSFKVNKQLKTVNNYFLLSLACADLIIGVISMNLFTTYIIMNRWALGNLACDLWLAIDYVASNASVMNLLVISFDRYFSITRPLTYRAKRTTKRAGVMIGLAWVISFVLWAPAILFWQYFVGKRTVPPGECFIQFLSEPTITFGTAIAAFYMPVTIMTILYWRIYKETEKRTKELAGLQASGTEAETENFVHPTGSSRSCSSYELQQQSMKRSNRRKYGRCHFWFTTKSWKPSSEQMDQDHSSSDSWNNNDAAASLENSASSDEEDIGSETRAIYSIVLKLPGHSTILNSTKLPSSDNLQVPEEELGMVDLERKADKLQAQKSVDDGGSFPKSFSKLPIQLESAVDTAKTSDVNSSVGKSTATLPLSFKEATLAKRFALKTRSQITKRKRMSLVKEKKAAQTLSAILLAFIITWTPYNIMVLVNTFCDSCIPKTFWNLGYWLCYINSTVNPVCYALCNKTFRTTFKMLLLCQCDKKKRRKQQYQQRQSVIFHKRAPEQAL
Sequence of 5-hydroxytryptamine receptor 7 (P34969 whole entry): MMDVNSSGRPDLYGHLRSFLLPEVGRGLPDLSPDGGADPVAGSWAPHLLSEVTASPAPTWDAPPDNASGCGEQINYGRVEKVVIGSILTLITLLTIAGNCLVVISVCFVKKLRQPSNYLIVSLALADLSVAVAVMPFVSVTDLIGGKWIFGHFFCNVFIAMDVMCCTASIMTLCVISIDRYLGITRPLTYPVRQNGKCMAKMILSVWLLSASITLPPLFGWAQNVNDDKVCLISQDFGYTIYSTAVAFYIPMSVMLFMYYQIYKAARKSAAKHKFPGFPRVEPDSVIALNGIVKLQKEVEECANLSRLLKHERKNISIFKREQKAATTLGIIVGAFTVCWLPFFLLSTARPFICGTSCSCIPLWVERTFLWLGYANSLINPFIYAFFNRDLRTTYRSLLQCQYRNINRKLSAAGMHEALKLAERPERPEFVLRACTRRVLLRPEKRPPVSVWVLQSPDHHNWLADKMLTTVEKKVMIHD
Sequence of 5-hydroxytryptamine receptor 4 (Q29006 whole entry): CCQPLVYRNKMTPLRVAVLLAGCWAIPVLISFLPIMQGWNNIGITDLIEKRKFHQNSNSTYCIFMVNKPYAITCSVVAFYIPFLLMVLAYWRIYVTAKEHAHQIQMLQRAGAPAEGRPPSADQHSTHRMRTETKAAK
Sequence of 5-hydroxytryptamine receptor 1E (P28566 whole entry): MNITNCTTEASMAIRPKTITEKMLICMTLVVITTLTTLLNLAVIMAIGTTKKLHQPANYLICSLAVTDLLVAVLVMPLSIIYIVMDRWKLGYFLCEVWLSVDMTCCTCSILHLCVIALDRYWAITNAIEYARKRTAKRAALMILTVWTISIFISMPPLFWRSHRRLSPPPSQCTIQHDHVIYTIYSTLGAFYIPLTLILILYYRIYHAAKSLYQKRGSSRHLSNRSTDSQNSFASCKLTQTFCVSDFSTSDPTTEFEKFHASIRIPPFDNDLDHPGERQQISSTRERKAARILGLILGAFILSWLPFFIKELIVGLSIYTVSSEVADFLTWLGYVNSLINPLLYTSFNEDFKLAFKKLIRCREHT
Sequence of D(3) dopamine receptor (P35462 as listed by the source): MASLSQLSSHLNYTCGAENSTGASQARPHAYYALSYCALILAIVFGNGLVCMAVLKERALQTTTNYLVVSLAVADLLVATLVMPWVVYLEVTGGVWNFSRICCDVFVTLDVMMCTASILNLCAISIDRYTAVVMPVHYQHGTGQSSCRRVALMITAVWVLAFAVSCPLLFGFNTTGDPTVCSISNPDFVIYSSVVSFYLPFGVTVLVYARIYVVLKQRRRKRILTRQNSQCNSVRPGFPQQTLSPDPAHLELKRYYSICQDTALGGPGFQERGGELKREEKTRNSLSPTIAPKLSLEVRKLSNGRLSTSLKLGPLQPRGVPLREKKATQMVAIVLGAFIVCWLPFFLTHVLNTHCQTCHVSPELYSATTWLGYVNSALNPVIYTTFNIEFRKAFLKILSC
Sequence of 5-hydroxytryptamine receptor 2A (P28223 whole entry): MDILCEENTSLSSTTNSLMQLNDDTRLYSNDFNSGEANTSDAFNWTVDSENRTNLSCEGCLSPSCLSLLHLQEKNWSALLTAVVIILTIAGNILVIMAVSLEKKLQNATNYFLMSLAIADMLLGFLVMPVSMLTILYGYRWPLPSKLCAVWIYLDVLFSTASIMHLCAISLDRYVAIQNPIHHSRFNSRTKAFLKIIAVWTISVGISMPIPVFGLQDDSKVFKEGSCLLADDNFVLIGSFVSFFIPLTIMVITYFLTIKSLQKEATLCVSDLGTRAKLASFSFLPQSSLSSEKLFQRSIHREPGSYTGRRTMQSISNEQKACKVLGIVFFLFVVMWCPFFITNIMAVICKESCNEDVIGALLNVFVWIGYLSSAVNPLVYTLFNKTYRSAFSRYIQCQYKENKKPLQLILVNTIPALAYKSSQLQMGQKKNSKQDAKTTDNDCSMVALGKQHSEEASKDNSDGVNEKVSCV
Sequence of D(2) dopamine receptor (P14416 whole entry): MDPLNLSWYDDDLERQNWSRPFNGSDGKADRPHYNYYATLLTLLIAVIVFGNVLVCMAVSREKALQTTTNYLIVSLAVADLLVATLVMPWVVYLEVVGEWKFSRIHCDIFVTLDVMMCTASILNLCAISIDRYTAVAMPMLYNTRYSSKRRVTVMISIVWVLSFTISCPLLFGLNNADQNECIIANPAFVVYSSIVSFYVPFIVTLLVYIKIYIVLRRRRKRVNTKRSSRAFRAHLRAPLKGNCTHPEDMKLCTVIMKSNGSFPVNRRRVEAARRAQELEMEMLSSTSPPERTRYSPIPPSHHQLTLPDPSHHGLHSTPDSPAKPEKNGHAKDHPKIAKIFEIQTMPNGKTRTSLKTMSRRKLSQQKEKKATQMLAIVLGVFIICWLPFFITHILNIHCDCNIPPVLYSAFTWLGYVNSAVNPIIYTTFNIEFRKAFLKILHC
Sequence of 5-hydroxytryptamine receptor 1B (P28222 whole entry): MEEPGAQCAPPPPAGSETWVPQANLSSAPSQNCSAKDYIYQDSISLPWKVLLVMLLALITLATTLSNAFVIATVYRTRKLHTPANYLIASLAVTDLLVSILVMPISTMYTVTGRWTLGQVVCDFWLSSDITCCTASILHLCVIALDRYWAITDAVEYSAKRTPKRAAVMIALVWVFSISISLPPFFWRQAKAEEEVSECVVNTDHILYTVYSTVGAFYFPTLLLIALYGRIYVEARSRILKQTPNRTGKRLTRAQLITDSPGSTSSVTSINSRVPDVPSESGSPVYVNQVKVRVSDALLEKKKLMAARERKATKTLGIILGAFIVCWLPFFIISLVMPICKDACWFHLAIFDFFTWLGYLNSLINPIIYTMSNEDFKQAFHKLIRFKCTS
Sequence of 5-hydroxytryptamine receptor 2B (P41595 whole entry): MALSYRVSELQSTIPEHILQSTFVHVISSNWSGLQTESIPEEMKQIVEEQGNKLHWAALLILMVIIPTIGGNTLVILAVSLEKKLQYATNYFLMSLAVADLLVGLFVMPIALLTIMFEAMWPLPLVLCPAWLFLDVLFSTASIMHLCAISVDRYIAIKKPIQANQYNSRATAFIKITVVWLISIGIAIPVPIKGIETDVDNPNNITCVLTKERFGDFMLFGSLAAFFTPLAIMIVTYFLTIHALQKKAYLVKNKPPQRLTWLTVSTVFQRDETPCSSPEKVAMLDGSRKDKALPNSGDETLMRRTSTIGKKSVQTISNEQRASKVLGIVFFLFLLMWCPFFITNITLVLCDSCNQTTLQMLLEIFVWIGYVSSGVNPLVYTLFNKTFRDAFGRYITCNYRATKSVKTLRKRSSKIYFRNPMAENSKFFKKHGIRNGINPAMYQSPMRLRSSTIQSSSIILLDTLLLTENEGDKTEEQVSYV

Broadly, the Ki is the equilibrium dissociation constant of an inhibitor or competing ligand from its target. A higher Ki goes with lower affinity. With `CCCCCCOc1nsnc1C1=CCCN(C)C1`, the inhibition constant Ki was found to be 0.126 µM in assay [1]; 1.58 µM in assay [2]; 0.0398 µM in [3]; 0.251 µM in assay [4]; 1.26 µM in assay [5]; 0.316 µM in assay [6]. Also, the Ki in assay [7] is 0.126 µM; in assay [8], 1 µM; in assay [9], 0.0199 µM; in assay [10] it was 0.398 µM; in assay [11], 2.51 µM; in assay [12] it was 0.0501 µM. Further, in [13], the affinity corresponds to a Ki of 0.0398 µM.

(Values after BindingDB's records for doi:10.1038/sj.bjp.0702201 (Smithkline Beecham Pharmaceuticals, 1998).)
